{"source": "patent US20230134714A1", "about": "“COMPOSITIONS COMPRISING BACTERIAL STRAINS” (4D PHARMA RESEARCH LIMITED, priority 2018, published 2023)", "key": {"HDAC [1]": {"test_system": "HDAC", "test": "Global HDAC activity analysis in HT-29 cells", "assay_type": "cell-based", "conditions": "for inhibition of total HDAC activity: whole HT-29 cells or cell lysate not specified", "protocol": "Whole cells and cell free supernatants of stationary phase 43042 cultures were isolated by centrifugation and filtering in a 0.22 uM filter. HT-29 cells were used 3 days' post confluence and stepped down in 1 mL DTS 24 hours prior to commencement of the experiment. The HT-29 cells were challenged with 10% cell free supernatant diluted in DTS and this was left to incubate for 48 hours. […] proteins were then extracted using the Sigma Aldrich […] extraction kit and samples were snap frozen prior to HDAC activity measurement. HDAC activity kit was assessed fluorometrically using the Sigma Aldrich (UK) kit.\n(§1) To investigate which metabolites were responsible for the strain-induced HDAC inhibition, different concentrations of hexanoic acid, valeric acid and sodium butyrate were measured for their HDAC inhibition on whole HT-29 cells and on HT-29 cell lysate."}, "[2]": {"test_system": "graft versus host disease (GVHD) induced in Balb/C mice", "test": "GVHD model (TBI plus allogeneic cell transfer)", "assay_type": "in vivo", "excerpt": "All animals were weighed and randomized by weight into treatment groups prior to study start. Prior to GVHD induction on Days −1 and 0, all animals were pre-treated (PO) with PBS (Groups 1-4), NCIMB 43171 (Group 5), or Butyrate salt control (Group 6) daily starting on Day −14. Butyrate was used as a positive control as butyrate deficit has been identified in the gut of GVHD patients.\nGVHD was induced in mice using a single acute dose of 8 Gy of total body irradiation (TBI) on Day −1. On Day 0, these recipient mice were given an intravenous injection of a combination of T cell depleted bone marrow cells and splenic cells from donor C57Bl/6 mice in PBS. Bone marrow cells were isolated using standard flushing practices, and were T cell depleted using the cell surface T cell antigen CD3, with a CD3-biotin kit (Miltenyi Biotec catalog 130-094-973). Splenocytes were isolated using Miltenyi GentleMACS Dissociators. Animals in Group 1 served as naïve controls and received neither TBI nor cell transfer. […] Animals in Group 3 served as syngeneic adoptive transfer controls; these animals received 8 Gy of TBI on Day −1, and an intravenous injection of a combination of T cell depleted bone marrow cells and splenic cells from donor Balb/C mice in sterile PBS.\nDaily test article dosing continued for the duration of the study (Days −14 to 30). Animal survival was recorded daily, as an indication of GVHD severity. Animals were also weighed, observed, and given a clinical GVHD score daily for the duration of the study following GVHD induction. The GVHD score was assessed by a standard scoring system based on five criteria (Table 21): percentage of weight change, posture (hunching), activity, fur texture, and skin integrity (maximum score=10).\nOn Day 29, all surviving animals underwent endoscopy to monitor colonic inflammation.\nOn Day 30, blood was collected by RO bleed; blood (approximately 150-300 μL) was collected into two tubes—approximately two third of the blood was collected into K2EDTA tubes, and the remaining one third was collected into lithium-heparin tubes. Both samples were centrifuged and processed for plasma, and plasma tubes were clearly labeled to indicate the anti-coagulant used. For the K2EDTA sample, plasma was aliquoted as follows: 25 μL (for use in downstream citrulline assay), and remainder. All plasma was frozen at −80° C. All K2EDTA samples were assessed for citrulline by ELISA upon study completion"}, "HDAC [3]": {"test_system": "HDAC", "test": "HDAC inhibition on HT-29 cell lysate", "assay_type": "biochemical", "conditions": "different concentrations", "protocol": "as §1"}, "[4]": {"conditions": "compared with Group 4 (PBS-TBI+allogeneic transfer)"}}, "note": "Where a name gives a salt, the structure may show the parent alone."}
{"smiles": "CCCCCC(=O)O", "note": "[hexanoic acid]", "values": [{"measurement": "inhibition of total HDAC activity", "setting": "HDAC [1]", "result": "did show significant inhibitory activity"}]}
{"smiles": "C=CC[C@@H]1/C=C(\\C)C[C@H](C)C[C@H](OC)[C@H]2O[C@@](O)(C(=O)C(=O)N3CCCC[C@H]3C(=O)O[C@H](/C(C)=C/[C@@H]3CC[C@@H](O)[C@H](OC)C3)[C@H](C)[C@@H](O)CC1=O)[C@H](C)C[C@@H]2OC", "note": "[tacrolimus]", "values": [{"measurement": "mean GVHD scores", "setting": "[2]; compared to Group 3", "result": "trend was also observed"}, {"measurement": "mean body weight over the course of the study", "setting": "[2]; [4]", "result": "same trend was observed"}]}
{"smiles": "CCCC(=O)O", "note": "[Butyrate salt control]", "values": [{"measurement": "mean body weight over the course of the study", "setting": "[2]; compared to Group 1 (PBS-naive)", "result": "significantly decreased"}, {"measurement": "mean body weight over the course of the study", "setting": "[2]; compared to Group 3 (PBS-TBI+syngeneic transfer)", "result": "significantly decreased"}, {"measurement": "mean body weight over the course of the study", "setting": "[2]; [4]", "result": "No significant differences"}, {"measurement": "mean colitis severity scores", "setting": "[2]; endoscopy Day 29, compared to naive mice (Group 1)", "result": "increased"}]}
{"smiles": "CCCC(=O)[O-].[Na+]", "note": "[sodium butyrate, Sodium butyrate]", "values": [{"measurement": "inhibition of HDAC activity on HT-29 cell lysate", "setting": "HDAC [3]", "result": "significant (P<0.05) inhibition"}, {"measurement": "inhibition of HDAC activity on whole HT-29 cells", "setting": "HDAC [1]; different concentrations, whole cells", "result": "significant (P<0.05) inhibition"}]}
{"smiles": "CCCCC(=O)O", "note": "[Valeric acid, valeric acid]", "values": [{"measurement": "inhibition of total HDAC activity", "setting": "HDAC [1]", "result": "inhibited total HDAC activity"}]}
